Read-outs that look alike come from different tables or passages of the source. Starred links: 1 amine or outer side, 2 acyl side, 3 side chain; linkers in the order of their positions; H or OH if unused. Non-standard residues stand in square brackets, D forms with d. Residues, ends and D or L forms follow the SMILES beside them. Groups on a side chain read outwards from the residue. *: point of attachment. C20 diacid = O=C(O)CCCCCCCCCCCCCCCCCCC(=O)*; C18 diacid = O=C(O)CCCCCCCCCCCCCCCCC(=O)*; C16 diacid = O=C(O)CCCCCCCCCCCCCCC(=O)*; γGlu = O=C(O)[C@H](CCC(=O)[*:2])N[*:1]; εLys = N[C@@H](CCCCN[*:1])C(=O)[*:2]; AEEA = NCCOCCOCC(=O)O; Aib = CC(C)(N)C(=O)O
Legend:
human GLP-1 receptor = human GLP-1 receptor (Homo sapiens, UniProt P43220); experiment: In vitro functional potency, CRE luciferase reporter, whole BHK cells (hGLP-1R); format: cell-based; design: expressed in transfected cells; host or cells: BHK (parent line BHKTS13), clone BHK CRE luc2P hGLP-1R; conditions: BHK CRE luc2P hGLP-1R cells
human GLP-1 receptor, sequence (P43220 24-463): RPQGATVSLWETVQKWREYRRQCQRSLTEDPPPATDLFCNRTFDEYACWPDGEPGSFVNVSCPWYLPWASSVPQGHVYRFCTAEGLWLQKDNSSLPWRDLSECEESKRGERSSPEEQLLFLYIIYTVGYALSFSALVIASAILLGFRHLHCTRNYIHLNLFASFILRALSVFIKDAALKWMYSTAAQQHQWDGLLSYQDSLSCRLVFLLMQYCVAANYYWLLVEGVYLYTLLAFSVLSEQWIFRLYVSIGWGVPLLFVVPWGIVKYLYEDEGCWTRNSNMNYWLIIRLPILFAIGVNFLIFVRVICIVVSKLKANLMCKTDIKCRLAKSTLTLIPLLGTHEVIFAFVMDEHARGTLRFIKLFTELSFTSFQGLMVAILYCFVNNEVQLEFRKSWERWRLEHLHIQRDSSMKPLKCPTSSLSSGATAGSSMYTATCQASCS
Procedure, shortened: (§1)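 Potencies are replicate means (n≥2) from non-linear log(agonist) vs response fits of CRE-driven luminescence. Cells were overnight-plated BHK CRE luc2P lines transfected with human GIPR or GLP-1R, 5000/well.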

human GIP receptor = biological target: T1, human GIP receptor (Homo sapiens, UniProt P48546); experiment: In vitro functional potency, CRE luciferase reporter, whole BHK cells (hGIPR); format: cell-based; conditions: BHK CRE luc2P hGIPR cells
T1 construct: expressed in transfected cells; host or cells: BHK (parent line BHKTS13), clone BHK CRE luc2P hGIPR
T1 sequence (P48546 22-466): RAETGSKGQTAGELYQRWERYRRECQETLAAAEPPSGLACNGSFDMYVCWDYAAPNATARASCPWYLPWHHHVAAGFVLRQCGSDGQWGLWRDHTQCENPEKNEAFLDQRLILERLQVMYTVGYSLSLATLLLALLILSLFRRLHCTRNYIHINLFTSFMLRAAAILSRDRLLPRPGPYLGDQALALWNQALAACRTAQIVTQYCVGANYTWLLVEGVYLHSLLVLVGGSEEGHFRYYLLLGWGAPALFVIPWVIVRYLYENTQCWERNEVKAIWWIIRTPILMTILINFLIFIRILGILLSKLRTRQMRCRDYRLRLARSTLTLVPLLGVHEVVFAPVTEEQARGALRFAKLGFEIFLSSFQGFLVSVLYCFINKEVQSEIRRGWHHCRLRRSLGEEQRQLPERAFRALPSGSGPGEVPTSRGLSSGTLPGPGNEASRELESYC
Procedure, shortened: as §1

[1] = 0% HSA, read-out: hGLP-1R, CRE Luc 0% HSA EC50
[2] = hGLP-1R, CRE Luc 1% HSA EC50, 1% HSA
[3] = 0% HSA, read-out: hGIPR, CRE Luc 0% HSA EC50
[4] = hGIPR, CRE Luc 1% HSA EC50, 1% HSA

Compound	EC50 (human GLP-1 receptor; [1])	EC50 (human GLP-1 receptor; [2])	EC50 (human GIP receptor; [3])	EC50 (human GIP receptor; [4])
CC(C)C[C@H](NC(=O)[C@H](CC(C)C)NC(=O)[C@H](Cc1c[nH]c2ccccc12)NC(=O)[C@H](CC(N)=O)NC(=O)[C@@H](NC(=O)[C@H](Cc1ccccc1)NC(=O)[C@H](CCC(=O)O)NC(=O)[C@H](CCC(N)=O)NC(=O)[C@H](C)NC(=O)[C@H](C)NC(=O)[C@H](CCC(N)=O)NC(=O)[C@H](CCCCNC(=O)[C@@H](N)CCCCNC(=O)[C@@H](N)CCCCNC(=O)CC[C@H](NC(=O)CCCCCCCCCCCCCCCCC(=O)O)C(=O)O)NC(=O)[C@H](CCC(=O)O)NC(=O)[C@H](CC(C)C)NC(=O)[C@H](Cc1ccc(O)cc1)NC(=O)[C@H](Cc1ccc(O)cc1)NC(=O)[C@H](CO)NC(=O)[C@H](Cc1ccc(O)cc1)NC(=O)[C@H](CC(=O)O)NC(=O)[C@H](CO)NC(=O)[C@@H](NC(=O)[C@H](Cc1ccccc1)NC(=O)[C@@H](NC(=O)CNC(=O)[C@H](CCC(=O)O)NC(=O)C(C)(C)NC(=O)[C@@H](N)Cc1ccc(O)cc1)[C@@H](C)O)[C@@H](C)O)C(C)C)C(=O)N[C@@H](C)C(=O)NCC(=O)NCC(=O)N1CCC[C@H]1C(=O)N[C@@H](CO)C(=O)N[C@@H](CO)C(=O)NCC(=O)N[C@@H](C)C(=O)N1CCC[C@H]1C(=O)N1CCC[C@H]1C(=O)N1CCC[C@H]1C(=O)N[C@@H](CO)C(N)=O [Compound 3] (H-Y[Aib]EGTFTSDYSYYLEK([εLys-εLys-γGlu-C18 diacid])QAAQEFVNWLLAGGPSSGAPPPS-NH2)	0.0085 nM	0.626 nM	0.0069 nM	0.229 nM
CC[C@H](C)[C@H](NC(=O)[C@H](Cc1ccccc1)NC(=O)[C@H](CCC(=O)O)NC(=O)[C@H](CCCNC(=N)N)NC(=O)[C@H](C)NC(=O)[C@H](C)NC(=O)[C@H](CCC(N)=O)NC(=O)[C@H](CCC(=O)O)NC(=O)[C@H](CCC(=O)O)NC(=O)[C@H](CC(C)C)NC(=O)[C@H](CC(C)C)NC(=O)[C@@H](NC(=O)[C@H](CO)NC(=O)[C@H](Cc1ccc(O)cc1)NC(=O)[C@H](CC(=O)O)NC(=O)[C@H](CO)NC(=O)[C@@H](NC(=O)[C@H](Cc1ccccc1)NC(=O)[C@@H](NC(=O)CNC(=O)[C@H](CCC(=O)O)NC(=O)C(C)(C)NC(=O)[C@@H](N)Cc1ccc(O)cc1)[C@@H](C)O)[C@@H](C)O)[C@@H](C)CC)C(=O)N[C@@H](CCC(=O)O)C(=O)N[C@@H](Cc1c[nH]c2ccccc12)C(=O)N[C@@H](CC(C)C)C(=O)N[C@@H](CC(C)C)C(=O)N[C@@H](C)C(=O)NCC(=O)NCC(=O)N1CCC[C@H]1C(=O)N[C@@H](CO)C(=O)N[C@@H](CCCCNC(=O)COCCOCCNC(=O)COCCOCCNC(=O)CC[C@H](NC(=O)CCCCCCCCCCCCCCC(=O)O)C(=O)O)C(=O)NCC(=O)N[C@@H](C)C(=O)N1CCC[C@H]1C(=O)N1CCC[C@H]1C(=O)N1CCC[C@H]1C(=O)N[C@@H](CO)C(=O)O [Compound 47] (H-Y[Aib]EGTFTSDYSILLEEQAAREFIEWLLAGGPSK([AEEA-AEEA-γGlu-C16 diacid])GAPPPS-OH)	0.0021 nM	0.154 nM	0.0031 nM	0.156 nM
CC[C@H](C)[C@H](NC(=O)[C@H](Cc1ccccc1)NC(=O)[C@H](CCC(=O)O)NC(=O)[C@H](CCCNC(=N)N)NC(=O)[C@H](C)NC(=O)[C@H](C)NC(=O)[C@H](CCC(N)=O)NC(=O)[C@H](CCCCNC(=O)COCCOCCNC(=O)COCCOCCNC(=O)CC[C@H](NC(=O)CCCCCCCCCCCCCCCCC(=O)O)C(=O)O)NC(=O)[C@H](CCC(=O)O)NC(=O)[C@H](CC(C)C)NC(=O)[C@H](CC(C)C)NC(=O)[C@@H](NC(=O)[C@H](CO)NC(=O)[C@H](Cc1ccc(O)cc1)NC(=O)[C@H](CC(=O)O)NC(=O)[C@H](CO)NC(=O)[C@@H](NC(=O)[C@H](Cc1ccccc1)NC(=O)[C@@H](NC(=O)CNC(=O)[C@H](CCC(=O)O)NC(=O)C(C)(C)NC(=O)[C@@H](N)Cc1ccc(O)cc1)[C@@H](C)O)[C@@H](C)O)[C@@H](C)CC)C(=O)N[C@@H](CC(N)=O)C(=O)N[C@@H](Cc1c[nH]c2ccccc12)C(=O)N[C@@H](CC(C)C)C(=O)N[C@@H](CC(C)C)C(=O)N[C@@H](C)C(=O)NCC(=O)NCC(=O)N1CCC[C@H]1C(=O)N[C@@H](CO)C(=O)N[C@@H](CO)C(=O)NCC(=O)N[C@@H](C)C(=O)N1CCC[C@H]1C(=O)N1CCC[C@H]1C(=O)N1CCC[C@H]1C(=O)N[C@@H](CO)C(=O)O [Compound 35] (H-Y[Aib]EGTFTSDYSILLEK([AEEA-AEEA-γGlu-C18 diacid])QAAREFINWLLAGGPSSGAPPPS-OH)	0.003 nM	0.413 nM	0.0052 nM	0.303 nM
CC[C@H](C)[C@H](NC(=O)[C@H](Cc1ccccc1)NC(=O)[C@H](CCC(=O)O)NC(=O)[C@H](CCCNC(=N)N)NC(=O)[C@H](C)NC(=O)[C@H](C)NC(=O)[C@H](CCC(N)=O)NC(=O)[C@H](CCCCNC(=O)[C@@H](N)CCCCNC(=O)[C@@H](N)CCCCNC(=O)CC[C@H](NC(=O)CCCCCCCCCCCCCCCCC(=O)O)C(=O)O)NC(=O)[C@H](CCC(=O)O)NC(=O)[C@H](CC(C)C)NC(=O)[C@H](CC(C)C)NC(=O)[C@@H](NC(=O)[C@H](CO)NC(=O)[C@H](Cc1ccc(O)cc1)NC(=O)[C@H](CC(=O)O)NC(=O)[C@H](CO)NC(=O)[C@@H](NC(=O)[C@H](Cc1ccccc1)NC(=O)[C@@H](NC(=O)CNC(=O)[C@H](CCC(=O)O)NC(=O)C(C)(C)NC(=O)[C@@H](N)Cc1ccc(O)cc1)[C@@H](C)O)[C@@H](C)O)[C@@H](C)CC)C(=O)N[C@@H](CC(N)=O)C(=O)N[C@@H](Cc1c[nH]c2ccccc12)C(=O)N[C@@H](CC(C)C)C(=O)N[C@@H](CC(C)C)C(=O)N[C@@H](C)C(=O)NCC(=O)NCC(=O)N1CCC[C@H]1C(=O)O [Compound 19] (H-Y[Aib]EGTFTSDYSILLEK([εLys-εLys-γGlu-C18 diacid])QAAREFINWLLAGGP-OH)	0.0086 nM	0.365 nM	0.0065 nM	0.275 nM
CC(C)C[C@H](NC(=O)[C@H](CC(C)C)NC(=O)[C@H](Cc1c[nH]c2ccccc12)NC(=O)[C@H](CC(N)=O)NC(=O)[C@@H](NC(=O)[C@H](Cc1ccccc1)NC(=O)[C@H](CCC(=O)O)NC(=O)[C@H](CCC(N)=O)NC(=O)[C@H](C)NC(=O)[C@H](C)NC(=O)[C@H](CCC(N)=O)NC(=O)[C@H](CCCCNC(=O)[C@@H](N)CCCCNC(=O)[C@@H](N)CCCCNC(=O)CC[C@H](NC(=O)CCCCCCCCCCCCCCCCCCC(=O)O)C(=O)O)NC(=O)[C@H](CCC(=O)O)NC(=O)[C@H](CC(C)C)NC(=O)[C@H](Cc1ccc(O)cc1)NC(=O)[C@H](Cc1ccc(O)cc1)NC(=O)[C@H](CO)NC(=O)[C@H](Cc1ccc(O)cc1)NC(=O)[C@H](CC(=O)O)NC(=O)[C@H](CO)NC(=O)[C@@H](NC(=O)[C@H](Cc1ccccc1)NC(=O)[C@@H](NC(=O)CNC(=O)[C@H](CCC(=O)O)NC(=O)C(C)(C)NC(=O)[C@@H](N)Cc1ccc(O)cc1)[C@@H](C)O)[C@@H](C)O)C(C)C)C(=O)N[C@@H](C)C(=O)NCC(=O)NCC(=O)N1CCC[C@H]1C(=O)N[C@@H](CO)C(=O)N[C@@H](CO)C(=O)NCC(=O)N[C@@H](C)C(=O)N1CCC[C@H]1C(=O)N1CCC[C@H]1C(=O)N1CCC[C@H]1C(=O)N[C@@H](CO)C(N)=O [Compound 2] (H-Y[Aib]EGTFTSDYSYYLEK([εLys-εLys-γGlu-C20 diacid])QAAQEFVNWLLAGGPSSGAPPPS-NH2)	0.006 nM	0.9 nM	0.0038 nM	0.275 nM
CC[C@H](C)[C@H](NC(=O)[C@H](CO)NC(=O)[C@H](Cc1ccc(O)cc1)NC(=O)[C@H](CC(=O)O)NC(=O)[C@H](CO)NC(=O)[C@@H](NC(=O)[C@H](Cc1ccccc1)NC(=O)[C@@H](NC(=O)CNC(=O)[C@H](CCC(=O)O)NC(=O)C(C)(C)NC(=O)[C@@H](N)Cc1ccc(O)cc1)[C@@H](C)O)[C@@H](C)O)C(=O)N[C@@H](CC(C)C)C(=O)N[C@@H](CC(C)C)C(=O)N[C@@H](CCC(=O)O)C(=O)N[C@@H](CCCCNC(=O)[C@@H](N)CCCCNC(=O)[C@@H](N)CCCCNC(=O)CC[C@H](NC(=O)CCCCCCCCCCCCCCCCC(=O)O)C(=O)O)C(=O)N[C@@H](CCC(N)=O)C(=O)N[C@@H](C)C(=O)N[C@@H](C)C(=O)N[C@@H](CCCNC(=N)N)C(=O)N[C@@H](CCC(=O)O)C(=O)N[C@@H](Cc1ccccc1)C(=O)N[C@H](C(=O)N[C@@H](CC(N)=O)C(=O)N[C@@H](Cc1c[nH]c2ccccc12)C(=O)N[C@@H](CC(C)C)C(=O)N[C@@H](CC(C)C)C(=O)N[C@@H](C)C(=O)NCC(=O)NCC(=O)N1CCC[C@H]1C(=O)N[C@@H](CO)C(=O)N[C@@H](CO)C(=O)NCC(=O)N[C@@H](C)C(=O)N1CCC[C@H]1C(=O)N1CCC[C@H]1C(=O)N1CCC[C@H]1C(=O)N[C@@H](CO)C(=O)O)C(C)C [Compound 22] (H-Y[Aib]EGTFTSDYSILLEK([εLys-εLys-γGlu-C18 diacid])QAAREFVNWLLAGGPSSGAPPPS-OH)	0.0028 nM	0.171 nM	0.0062 nM	0.169 nM

From patent US20220177538A1, “CO-AGONISTS AT GLP-1 AND GIP RECEPTORS SUITABLE FOR ORAL DELIVERY” (Novo Nordisk A/S, priority 2020, published 2022)
